Laboratory results reported in ChEMBL document CHEMBL5252643, “Jozibrevine D from Ancistrocladus ileboensis, the fifth alkaloid in a series of six possible atropo-diastereomeric naphthylisoquinoline dimers, showing antiparasitic and antileukemic activities” (Bioorg Med Chem Lett, 2023).

How the values were obtained:
[1] = system: ADR5000 cell line; experiment: Cytotoxicity against multidrug resistant human CEM/ADR5000 cells; format: functional, cell-based
[2] = system: CCRF-CEM; experiment: Cytotoxicity against human CCRF-CEM cells; format: functional, cell-based
[3] = Selectivity ratio of IC50 for human CEM/ADR5000 cells to IC50 for human CCRF-CEM cells; format: functional
[4] = system: Trypanosoma brucei rhodesiense; experiment: Antitrypanosomal activity against Trypanosoma brucei rhodesiense; format: functional, organism-based
[5] = system: Leishmania donovani; experiment: Antileishmanial activity against Leishmania donovani; format: functional, organism-based
[6] = system: Plasmodium falciparum; experiment: Antiplasmodial activity against Plasmodium falciparum NF54; format: functional, organism-based
[7] = system: Trypanosoma cruzi; experiment: Antitrypanosomal activity against Trypanosoma cruzi; format: functional, organism-based
[8] = Selectivity index, ratio of IC50 for rat L6 cells to IC50 for Plasmodium falciparum NF54; format: toxicity; settings: L6 cells versus Plasmodium falciparum NF54, read-out: Ratio IC50
[9] = Cytotoxicity against rat L6 cells assessed as reduction in cell viability by resazurin dye based assay; format: toxicity

IC50 [4] [µM] | IC50 [5] [µM] | IC50 [6] [µM] | IC50 [7] [µM] | SMILES | IC50 [1] [µM] | IC50 [2] [µM] | Ratio IC50 [3] | selectivity ratio [8] | IC50 [9] [µM]
 |  |  |  | COc1cccc2c(-c3ccc4c(c3O)[C@@H](C)N[C@H](C)C4)c(C)c(-c3c(C)c(-c4ccc5c(c4O)[C@@H](C)N[C@H](C)C5)c4cccc(OC)c4c3O)c(O)c12 (stereo in doubt; 4d) | 7.59 | 5.35 | 1.42 |  | 
0.527 | 105 | 0.137 | 22.2 | COc1cccc2c(-c3ccc4c(c3O)[C@@H](C)N[C@H](C)C4)c(C)c(-c3c(C)c(-c4ccc5c(c4O)[C@@H](C)N[C@H](C)C5)c4cccc(OC)c4c3O)c(O)c12 (stereo in doubt; 4e) | 16.6 | 11.5 | 1.45 | 45.4 | 6.22
